In patent US20260355188A1, “COMBINATION THERAPIES USING PRMT5 INHIBITORS AND BCL-2 FAMILY INHIBITORS FOR THE TREATMENT OF CANCER” (MIRATI THERAPEUTICS, INC., priority 2022, published 2026):

Tests used:
[1] = test system: NCI-H1650 xenograft tumors; assay: In vivo combination study (NCI-H1650 model), Example 5; design: species or system female nu/nu mice; settings: MRTX1719 and ABT-263 100 mg/kg PO QD, A-1331852 25 mg/kg PO BID, alone or combined
Description: (§1) Immunodeficient female nu/nu mice were implanted with 5×10^6 LU99 cancer cells in 50% Matrigel. Tumor volume measurements were collected using calipers and determined utilizing the formula 0.5×L×W^2 in which L refers to length and W refers to width of each tumor. When tumors reached approximately 125-150 mm^3, animals were randomized to receive A) vehicle, B) a PRMT5 inhibitor, C) navitoclax (ABT-263), D) venetoclax (ABT-199), E) A-1331852, F) the PRMT5 inhibitor and navitoclax, F) the PRMT5 inhibitor and venetoclax, or G) the PRMT5 inhibitor and A-1331852 all administered orally (PO) with the indicated dose and schedule for 20-34 days. Tumor volume was measured twice a week (n=5/treatment group). Average tumor volume and standard error of the mean was calculated and plotted at each study day using GraphPad Prism.
Example 5 was carried out using NCI-H1650 cell line derived xenografts according to the in vivo study procedure described above in Example 1.
(§2) The PRMT5 inhibitor was MRTX1719 administered at 100 mg/kg once a day (QD). MRTX1719 is (2M)-2-(4-(4-(aminomethyl)-1-oxo-1,2-dihydrophthalazin-6-yl)-1-methyl-1H-pyrazol-5-yl)-4-chloro-6-cyclopropoxy-3-fluorobenzonitrile, disclosed as Example 16-8 at p. 307 of the international patent publication No. WO 2021/050915 A1, published 18 Mar. 2021, incorporated by reference in its entirety. The BCL-2 family inhibitor, ABT-263 (navitoclax), was administered at 100 mg/kg once a day (QD) and supplied by Selleck Chemicals (Houston, TX). The BCL-2 family inhibitor A-1331852 was administered at 25 mg/kg twice a day (BID) and synthesized at Wuxi AppTec (Wuhan, China).

SW1573 xenograft tumors = assay: In vivo combination study (SW1573 model), Example 3; design: species or system female nu/nu mice; settings: MRTX1719 and ABT-263 100 mg/kg PO QD, A-1331852 25 mg/kg PO QD, alone or combined
Description: as §1
Example 3 was carried out in SW1573 cell line derived xenografts according to the in vivo study procedure described above in Example 1.
as §2, with “once” for “twice”, “(QD)” for “(BID)”

[2] = test system: NCI-H1437 xenograft tumors; assay: In vivo combination study (NCI-H1437 model), Example 2; design: species or system female nu/nu mice; settings: MRTX1719 and ABT-263 100 mg/kg PO QD, A-1331852 25 mg/kg PO QD, alone or combined
Description: as §1
Example 2 was carried out using NCI-H1437 cell line derived xenografts according to the in vivo study procedure described above in Example 1.
as §2, with “once” for “twice”, “(QD)” for “(BID)”

Mero14 = assay: In vitro combination synergy, Mero14 (Cell-Titer Glo); format: cell-based; settings: combined with exemplary PRMT5 inhibitor, 120 h, sum of Loewe, Bliss, HSA and ZIP scores
Experimental: (§3) A panel of MTAP-deleted cancer cell lines was assembled to determine whether combining BCL-2 family inhibitors with exemplary PRMT5 inhibitors disclosed herein results in synergistic activity.
(§4) [Assays for determining the synergy score for the pairwise combinations for each cell line were performed in triplicate. 384 or 96-well plates plus additional wells of a separate 384 or 96-well control plate for determining baseline luminescence were seeded with cells of a particular MTAP-deleted cell line in a suitable growth medium for that cell line, e.g., RPMI 1640 medium supplemented with 10% FBS and any cell line specific reagents needed for growth. The plates were incubated overnight at 37 °C in a 5% CO2 atmosphere.
(§5) To each of the designated baseline wells, Cell-Titer Glo reagent (CTG; Promega Corporation) was added to each well and the plates were incubated for 20 min shaking at room temperature. Baseline luminescence was quantitated using a BMG ClarioStar multimode plate reader according to the manufacturer's instructions.
(§6) A series of 1000× drug dilutions in 100% DMSO was prepared that includes a 9-point single agent 3-fold dilution of the exemplary PRMT5 inhibitor (of the type described in WO2021/050915) with a top dose of 3000 nM (and a 6-point single agent 5-fold dilution of the BCL-2 family inhibitor with a top dose of 3000 nM as reference standards.
(§7) A 10× intermediate dosing plate was prepared in serum free medium that contains arrayed single agent dilutions of exemplary PRMT5 inhibitor (of the type described in WO2021/050915) and or the BCL-2 family inhibitor. In addition, a matrix of 54 dilution combinations of exemplary PRMT5 inhibitor (of the type described in WO2021/050915) and the BCL-2 family inhibitor was prepared as test samples.
(§8) To each corresponding well of the 384-well plates seeded with the appropriate cell line above, 10× single agent and the 54 combinations of the dose matrix was added and the plates were incubated for 120 hours at 37 °C in 5% CO2 atmosphere. Cell-Titer Glo reagent (CTG) was added to each test well, the plates were incubated for 20 min shaking at room temperature, and luminescence was quantitated using a BMG ClarioStar multimode plate reader according to the manufacturer's instructions. To normalize test samples, the determined baseline luminescence was subtracted from each test sample prior to analysis and mean values are calculated from replicate samples.
(§9) The output of the data from each mathematical model is the assignment of a relative synergy score. The data reported in Table 6 are the aggregate sum of the Loewe additivity, Bliss independence, Highest Single Agent and ZIP synergy scores (“Composite Synergy Score”).

LU99 = assay: In vitro combination synergy, LU99 (Cell-Titer Glo); format: cell-based; settings: combined with exemplary PRMT5 inhibitor, 120 h, sum of Loewe, Bliss, HSA and ZIP scores
Experimental: as §3, §4, §5, §6, §7, §8, §9

| Compound | Average Tumor Volume ([1]; day 0) | Average Tumor Volume ([1]; day 5) | Average Tumor Volume ([1]; day 8) | Average Tumor Volume ([1]; day 13) | Average Tumor Volume ([1]; day 15) | Average Tumor Volume ([1]; day 19) | Average Tumor Volume ([1]; day 22) | Average Tumor Volume (SW1573 xenograft tumors; day 3) | Average Tumor Volume (SW1573 xenograft tumors; day 6) | Average Tumor Volume (SW1573 xenograft tumors; day 10) | Average Tumor Volume (SW1573 xenograft tumors; day 13) | Average Tumor Volume (SW1573 xenograft tumors; day 17) | Average Tumor Volume (SW1573 xenograft tumors; day 20) | Average Tumor Volume (SW1573 xenograft tumors; day 26) | Average Tumor Volume (SW1573 xenograft tumors; day −1) | Average Tumor Volume ([2]; day 4) | Average Tumor Volume ([2]; day 7) | Average Tumor Volume ([2]; day 11) | Average Tumor Volume ([2]; day 14) | Average Tumor Volume ([2]; day 18) | also measured |
| --- | --- | --- | --- | --- | --- | --- | --- | --- | --- | --- | --- | --- | --- | --- | --- | --- | --- | --- | --- | --- | --- |
| Cn1ncc(-c2ccc3c(=O)[nH]nc(CN)c3c2)c1-c1c(F)c(Cl)cc(OC2CC2)c1C#N (atropisomer, axis not shown; (M)) [MRTX1719, (2M)-2-(4-(4-(aminomethyl)-1-oxo-1,2-dihydrophthalazin-6-yl)-1-methyl-1H-pyrazol-5-yl)-4-chloro-6-cyclopropoxy-3-fluorobenzonitrile] | 149 mm^3 | 246 mm^3 | 292 mm^3 | 344 mm^3 | 398 mm^3 | 469 mm^3 | 510 mm^3 | 172 mm^3 | 220 mm^3 | 229 mm^3 | 242 mm^3 | 319 mm^3 | 387 mm^3 | 444 mm^3 | 126 mm^3 | 200 mm^3 | 244 mm^3 | 268 mm^3 | 288 mm^3 | 316 mm^3 | Average Tumor Volume ([2]; day 21): 322 mm^3; Average Tumor Volume ([2]; day 25): 340 mm^3; Average Tumor Volume ([2]; day 28): 362 mm^3; Average Tumor Volume ([2]; day 34): 441 mm^3; Average Tumor Volume ([2]; day −1): 139 mm^3 |
| Cc1c(-c2ccc(N3CCc4cccc(C(=O)Nc5nc6ccccc6s5)c4C3)nc2C(=O)O)cnn1CC12CC3CC(CC(C3)C1)C2 [A-1331852] | 143 mm^3 | 163 mm^3 | 189 mm^3 | 255 mm^3 | 291 mm^3 | 347 mm^3 | 366 mm^3 | 209 mm^3 | 250 mm^3 | 271 mm^3 | 305 mm^3 | 421 mm^3 | 456 mm^3 | 609 mm^3 | 125 mm^3 | 171 mm^3 | 191 mm^3 | 248 mm^3 | 300 mm^3 | 332 mm^3 | Composite Synergy Score (Mero14): 28; Composite Synergy Score (LU99): 64; Average Tumor Volume ([2]; day 21): 376 mm^3; Average Tumor Volume ([2]; day 25): 467 mm^3; Average Tumor Volume ([2]; day 28): 564 mm^3; Average Tumor Volume ([2]; day 34): 683 mm^3; Average Tumor Volume ([2]; day −1): 139 mm^3 |
